Tested on: patients registered in THIN database
Assay: THIN cohort study 1995-2017: incidence of IMIDs according to mirtazapine exposure (Example 9)
Type: in vivo, human
Conditions: THIN 1995-2017
From the text: Data source: THIN is a primary care patient oriented electronic medical record (EMR) database. It is one of the largest medical databases in the UK, consisting of prospectively gathered electronic medical records from over 11.1 million patients (˜3.7 million active patients), the equivalent to 75.6 million patient years, from more than 560 general practices in the UK, covering 6.2% of the UK population. All data elements are fully anonymised and validated by Cegedim Strategic Data (CSD)-Medical Research UK. […] Data from participant general practitioners across the UK are exported to THIN administrators and the database is updated every 3 months.
Study cohort: All adult patients (18 years) registered in THIN database starting from Jan. 1, 1995. Since mirtazapine was approved and available in the UK, Europe, and US markets by 1996, all patients who were prescribed mirtazapine with a prescription duration longer than 30 days, were defined as incident cases. We assessed the hazard of developing each studied IMID (CD, UC, psoriasis, MS or RA) separately. […] Similarly, in the same MS cohort, if a patient develops another IMID of interest prior to a diagnosis of MS, the index date of outcome will be the date of MS diagnosis. In all of our cohorts, we will follow patients from study start date until an incident diagnosis of IMID of interest, death, loss to follow-up or end of follow-up.
Inclusion and exclusion criteria: Patients should not have any interruption of registration or leave of practice. Cases with mirtazapine prescription duration of less than 30 days or unknown duration were excluded from the study.
Exposure variable of interest: Our primary exposure variable was mirtazapine. We used Read codes to identify mirtazapine usage, duration, dose, and start date. Our primary outcome was the incident diagnosis of one of the following conditions: Crohn's disease, multiple sclerosis, psoriasis, rheumatoid arthritis, and ulcerative colitis during study follow-up period (1995-2017).
a) Demographic covariates: Pre-specified covariates include age at diagnosis; sex; and cigarette smoking status is defined either (1) current smoker, coded for smoking within 12 months of the index date (condition diagnosis date); (2) ex-smoker, coded for smoking before but not within 12 months of the index date; or (3) never smoked, coded either as a lifetime non-smoker or not recorded as a smoker; alcohol consumption classified as current, former, never consumed alcohol, or unknown status at diagnosis; body mass index (weight in kg and height in m2); and socioeconomic status measured by the Mosaic scale which is a consumer classification scale that captures demographics, lifestyles, and behaviours (10 classes).
b) Depression: Read codes were used to identify patients with major depressive disorder (MDD). Read codes associated with only symptoms of depression, bipolar disorder, mania or hypomania were excluded. MDD was defined as (1) never diagnosed with MDD; (2) past MDD diagnosis prior to 90 days from index date; or (3) current MDD diagnosis if a diagnosis was made within 90 days before or after the index date.
c) Comorbidities: We used the Quality and Outcomes Framework (QOF) Read codes to assess for the following comorbidities: asthma, atrial fibrillation, cancer, chronic kidney disease (stages 3-5), chronic obstructive pulmonary disease, coronary heart disease, dementia, diabetes, epilepsy, heart failure, hypertension, and hypothyroid. […]

CN1CCN2c3ncccc3Cc3ccccc3C2C1 (centres unmarked) [Mirtazapine]
Adjusted incidence rate ratio, Multiple sclerosis (N = 371, P = 0.006): 0.80 (0.71-0.88)
Adjusted incidence rate ratio, Crohn's Disease (N = 490, P = 0.89): 1.00 (0.93-1.07)
Adjusted incidence rate ratio, Ulcerative Colitis (N = 1375, P = 0.002): 0.84 (0.81-0.88)
Adjusted incidence rate ratio, R. arthritis (N = 1792, P < 0.001): 0.55 (0.51-0.60)
Adjusted incidence rate ratio, Psoriasis (N = 5181, P = 0.002): 0.93 (0.88-0.98)

Source: patent US11510928B2, “Use of mirtazapine in the treatment of inflammatory disorders, autoimmune disease and PBC” (UTI Limited Partnership, priority 2017, dated 2022)
